Assay results: US12492188B2, “1H-benzo[D]imidazole derivatives as TLR9 inhibitors for the treatment of fibrosis” (BRISTOL-MYERS SQUIBB COMPANY, priority 2020, dated 2025)
Read-outs that look alike come from different tables or passages of the source.

Columns and labels:
Assay type in all cases: cell-based
human TLR8 = biological target: T1, human TLR8 (Homo sapiens, UniProt Q9NR97); test: TLR8 inhibition reporter assay (HEK-Blue cells, secreted embryonic alkaline phosphatase reporter); conditions: HEK-Blue cells overexpressing human TLR8, stimulated with R848 15.9 μM; read-out: TLR 8 IC50
T1 construct: host or cells: HEK-Blue cells (HEK293-derived reporter line)
T1 sequence (Q9NR97 27-1041): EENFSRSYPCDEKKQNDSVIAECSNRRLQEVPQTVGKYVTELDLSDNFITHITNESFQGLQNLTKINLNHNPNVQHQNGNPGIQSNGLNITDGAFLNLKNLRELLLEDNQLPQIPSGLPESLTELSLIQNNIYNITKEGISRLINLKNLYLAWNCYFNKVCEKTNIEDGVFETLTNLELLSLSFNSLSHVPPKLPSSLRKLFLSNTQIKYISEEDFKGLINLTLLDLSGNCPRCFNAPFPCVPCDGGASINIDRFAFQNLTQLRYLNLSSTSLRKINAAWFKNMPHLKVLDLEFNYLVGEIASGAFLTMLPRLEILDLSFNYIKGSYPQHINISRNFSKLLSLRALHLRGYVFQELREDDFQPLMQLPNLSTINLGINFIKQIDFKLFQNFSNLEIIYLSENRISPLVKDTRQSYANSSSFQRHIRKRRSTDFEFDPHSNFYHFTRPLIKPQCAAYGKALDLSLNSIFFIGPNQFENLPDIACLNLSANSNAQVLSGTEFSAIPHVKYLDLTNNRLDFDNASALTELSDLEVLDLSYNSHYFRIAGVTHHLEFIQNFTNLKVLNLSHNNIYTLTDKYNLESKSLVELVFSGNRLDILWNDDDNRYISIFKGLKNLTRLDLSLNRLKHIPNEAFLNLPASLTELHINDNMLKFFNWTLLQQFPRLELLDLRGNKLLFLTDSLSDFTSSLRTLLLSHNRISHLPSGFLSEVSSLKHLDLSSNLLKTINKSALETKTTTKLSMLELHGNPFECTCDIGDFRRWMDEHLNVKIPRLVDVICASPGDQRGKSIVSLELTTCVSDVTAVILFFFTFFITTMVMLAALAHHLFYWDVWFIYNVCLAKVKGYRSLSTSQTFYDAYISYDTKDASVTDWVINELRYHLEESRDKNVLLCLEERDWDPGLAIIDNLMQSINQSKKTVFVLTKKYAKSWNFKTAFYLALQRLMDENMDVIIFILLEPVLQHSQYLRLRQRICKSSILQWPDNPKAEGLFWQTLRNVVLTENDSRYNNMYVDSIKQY
Summary of the method: (§1)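 Steps: seed receptor-specific HEK-Blue cells; add compound, 0.05 nM–50 μM; wait 30 min at room temperature; add final gardiquimod 7.5 μM, R848 15.9 μM or ODN2006 5 nM for TLR7, TLR8 or TLR9; incubate 22 h at 37 °C; detect NF-κB/AP-1-driven SEAP.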

human TLR9 = biological target: T2, human TLR9 (Homo sapiens, UniProt Q9NR96); test: TLR9 inhibition reporter assay (HEK-Blue cells, secreted embryonic alkaline phosphatase reporter)
T2 construct: host or cells: HEK-Blue cells (HEK293-derived reporter line)
T2 sequence (Q9NR96 26-1032): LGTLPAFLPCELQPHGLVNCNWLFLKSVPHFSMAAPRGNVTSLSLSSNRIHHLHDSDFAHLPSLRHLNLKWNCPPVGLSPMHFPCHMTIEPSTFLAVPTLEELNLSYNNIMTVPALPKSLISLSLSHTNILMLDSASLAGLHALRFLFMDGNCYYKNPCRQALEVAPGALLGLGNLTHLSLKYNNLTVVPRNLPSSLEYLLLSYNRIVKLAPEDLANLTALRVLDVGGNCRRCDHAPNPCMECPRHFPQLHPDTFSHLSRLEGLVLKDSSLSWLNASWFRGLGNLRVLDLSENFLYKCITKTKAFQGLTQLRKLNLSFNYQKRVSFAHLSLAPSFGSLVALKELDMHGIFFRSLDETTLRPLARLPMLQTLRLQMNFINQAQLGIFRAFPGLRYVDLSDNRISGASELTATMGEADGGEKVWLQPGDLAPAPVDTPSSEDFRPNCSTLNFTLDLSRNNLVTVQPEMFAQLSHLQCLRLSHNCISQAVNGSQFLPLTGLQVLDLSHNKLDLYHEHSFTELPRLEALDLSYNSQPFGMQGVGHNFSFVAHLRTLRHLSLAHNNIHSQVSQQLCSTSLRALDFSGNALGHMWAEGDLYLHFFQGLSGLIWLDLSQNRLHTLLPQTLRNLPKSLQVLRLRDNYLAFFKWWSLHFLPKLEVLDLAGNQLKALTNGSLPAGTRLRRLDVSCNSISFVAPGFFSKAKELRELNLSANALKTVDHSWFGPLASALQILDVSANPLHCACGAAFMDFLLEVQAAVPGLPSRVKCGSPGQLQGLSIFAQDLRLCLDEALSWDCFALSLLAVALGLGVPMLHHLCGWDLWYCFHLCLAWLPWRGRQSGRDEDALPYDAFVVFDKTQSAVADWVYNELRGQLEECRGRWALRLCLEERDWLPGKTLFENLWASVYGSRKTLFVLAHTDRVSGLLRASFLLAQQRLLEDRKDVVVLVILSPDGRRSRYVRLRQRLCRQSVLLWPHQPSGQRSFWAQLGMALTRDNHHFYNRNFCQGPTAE
Summary of the method: as §1

human TLR7 = biological target: T3, human TLR7 (Homo sapiens, UniProt Q9NYK1); test: TLR7 inhibition reporter assay (HEK-Blue cells, secreted embryonic alkaline phosphatase reporter); conditions: HEK-Blue cells overexpressing human TLR7, stimulated with gardiquimod 7.5 μM; read-out: TLR 7 IC50
T3 construct: host or cells: HEK-Blue cells (HEK293-derived reporter line)
T3 sequence (Q9NYK1 27-1049): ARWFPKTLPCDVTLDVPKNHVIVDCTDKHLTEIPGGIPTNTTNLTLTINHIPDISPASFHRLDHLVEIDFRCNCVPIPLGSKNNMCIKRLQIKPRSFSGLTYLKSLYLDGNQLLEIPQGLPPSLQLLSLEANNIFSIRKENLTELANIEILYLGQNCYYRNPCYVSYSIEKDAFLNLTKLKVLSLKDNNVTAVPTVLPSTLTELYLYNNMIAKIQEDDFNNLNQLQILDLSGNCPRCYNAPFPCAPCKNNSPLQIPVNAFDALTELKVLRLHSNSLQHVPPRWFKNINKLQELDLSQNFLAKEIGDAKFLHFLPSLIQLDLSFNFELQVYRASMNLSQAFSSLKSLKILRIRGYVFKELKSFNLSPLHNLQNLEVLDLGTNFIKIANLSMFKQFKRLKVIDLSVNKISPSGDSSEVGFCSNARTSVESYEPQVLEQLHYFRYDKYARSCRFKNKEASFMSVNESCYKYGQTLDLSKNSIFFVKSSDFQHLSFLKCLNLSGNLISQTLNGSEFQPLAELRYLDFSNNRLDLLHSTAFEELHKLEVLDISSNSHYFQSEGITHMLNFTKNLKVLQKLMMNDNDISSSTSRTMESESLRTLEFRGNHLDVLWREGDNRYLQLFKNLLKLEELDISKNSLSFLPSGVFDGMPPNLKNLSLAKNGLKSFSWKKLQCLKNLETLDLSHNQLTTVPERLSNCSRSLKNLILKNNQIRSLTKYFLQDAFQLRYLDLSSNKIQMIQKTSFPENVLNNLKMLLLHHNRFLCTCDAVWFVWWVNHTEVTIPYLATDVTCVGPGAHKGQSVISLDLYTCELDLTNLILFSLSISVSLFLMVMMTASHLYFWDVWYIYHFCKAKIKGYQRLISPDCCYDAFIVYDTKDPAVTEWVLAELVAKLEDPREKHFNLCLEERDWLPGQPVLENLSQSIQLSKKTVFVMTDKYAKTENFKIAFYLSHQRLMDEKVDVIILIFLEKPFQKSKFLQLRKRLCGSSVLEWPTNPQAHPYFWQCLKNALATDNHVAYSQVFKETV
Summary of the method: as §1

[1] = HEK-Blue cells overexpressing human TLR9, stimulated with ODN2006 5 nM, read-out: TLR 9 IC50
[2] = HEK-Blue human TLR9 reporter cells
[3] = HEK-Blue cells overexpressing human TLR9, stimulated with ODN2006 5 nM, 22 hour incubation, reporter readout

Row | IC50 (human TLR8) [nM] | IC50 (human TLR9; [1]) [nM] | IC50 (human TLR9; [2]) [nM] | IC50 (human TLR7) [nM] | IC50 (human TLR9) [nM] | IC50 (human TLR9; [3]) [nM] | Compound
1 | > 50000 | 5350 | – | > 50000 | 5400 | – | Cn1c(-c2ccc(S(C)(=O)=O)cc2)nc2cc(F)c(C3CCN(C4CCN(C5COC5)CC4)CC3)cc21 [Example 225, 5-fluoro-1-methyl-2-(4-(methylsulfonyl)phenyl)-6-(1′-(oxetan-3-yl)-[1,4′-bipiperidin]-4-yl)-1H-benzo[d]imidazole]
2 | > 50000 | 90 | 90 | 8600 | – | – | Cc1cc(C2CCN(C3CCCN(C4COC4)CC3)CC2)cc2c1nc(-c1ccc(S(C)(=O)=O)cc1)n2C (stereo not shown) [Example 305, 1,4-dimethyl-2-(4-(methylsulfonyl)phenyl)-6-(1-(1-(oxetan-3-yl)azepan-4-yl)piperidin-4-yl)-1H-benzo[d]imidazole]
3 | > 50000 | 73 | – | 700 | 73 | – | Cn1c(-c2ccc(S(C)(=O)=O)cc2)nc2c(F)cc(C3CCN(C4CCN(C5CCOCC5)CC4)CC3)cc21 [Example 280, 4-fluoro-1-methyl-2-(4-(methylsulfonyl)phenyl)-6-(1′-(tetrahydro-2H-pyran-4-yl)-[1,4′-bipiperidin]-4-yl)-1H-benzo[d]imidazole]
4 | 1000 | 5.3 | – | 1500 | – | 5.3 | Cn1c(-c2ccc(S(C)(=O)=O)cc2)nc2c(F)cc(-c3ccc(CN4CCC(N5CCCC5)CC4)cc3)cc21 [Example 409, 4-fluoro-1-methyl-2-(4-(methylsulfonyl)phenyl)-6-(4-((4-(pyrrolidin-1-yl)piperidin-1-yl)methyl)phenyl)-1H-benzo[d]imidazole]

Continued, compound first:

Row | Compound | IC50 (human TLR8) [nM] | IC50 (human TLR9; [1]) [nM] | IC50 (human TLR9; [2]) [nM] | IC50 (human TLR7) [nM] | IC50 (human TLR9) [nM] | IC50 (human TLR9; [3]) [nM]
5 | Cc1cc(C2CCN(C3CC4CCC(C3)N4CC3CC3)CC2)cc2c1nc(-c1ccc(S(C)(=O)=O)c(F)c1)n2C (stereo not shown) [Example 341, 6-(1-(8-(cyclopropylmethyl)-8-azabicyclo[3.2.1]octan-3-yl)piperidin-4-yl)-2-(3-fluoro-4-(methylsulfonyl)phenyl)-1,4-dimethyl-1H-benzo[d]imidazole] | 16700 | 37 | 37 | 2200 | – | –
6 | Cc1cc(C2CCN(C3CC4CCC(C3)N4CC(C)C)CC2)cc2[nH]c(-c3ccc(S(C)(=O)=O)c(F)c3)nc12 (stereo not shown) [Example 346, 2-(3-fluoro-4-(methylsulfonyl)phenyl)-6-(1-(8-isobutyl-8-azabicyclo[3.2.1]octan-3-yl)piperidin-4-yl)-4-methyl-1H-benzo[d]imidazole] | > 25000 | 56 | 56 | 7600 | – | –
7 | COc1ccc(-c2nc3cc(C4CCN(C5CCN(C(C)C)CC5)CC4)ccc3n2C(C)C)cc1OC [Example 6, 2-(3,4-dimethoxyphenyl)-1-isopropyl-5-(1′-isopropyl-[1,4′-bipiperidin]-4-yl)-1H-benzo[d]imidazole] | 29000 | 191 | – | 2900 | – | 190
8 | Cn1c(-c2ccc(S(C)(=O)=O)cc2)nc2cc(F)c(C3CCN(C4CC5CCC(C4)N5C4CCOCC4)CC3)cc21 (stereo not shown) [Example 237, 5-fluoro-1-methyl-2-(4-(methylsulfonyl)phenyl)-6-(1-(8-(tetrahydro-2H-pyran-4-yl)-8-azabicyclo[3.2.1]octan-3-yl)piperidin-4-yl)-1H-benzo[d]imidazole] | > 50000 | 87 | – | > 50000 | 87 | –
9 | Cn1c(-c2ccc(S(C)(=O)=O)cc2)nc2ccc(C3CCN(C4CC5CCC(C4)N5C4CCC4)CC3)c(F)c21 (single isomer, unassigned) [Example 270, 6-(1-(8-cyclobutyl-8-azabicyclo[3.2.1]octan-3-yl)piperidin-4-yl)-7-fluoro-1-methyl-2-(4-(methylsulfonyl)phenyl)-1H-benzo[d]imidazole] | > 50000 | 65 | – | 17700 | 65 | –
10 | COCCN1C2CCC1CC(N1CCC(c3cc(C)c4nc(-c5ccc(OC)c(OC)c5)n(C)c4c3)CC1)C2 (single isomer, unassigned) [Example 168, 2-(3,4-dimethoxyphenyl)-6-(1-(8-(2-methoxyethyl)-8-azabicyclo[3.2.1]octan-3-yl)piperidin-4-yl)-1,4-dimethyl-1H-benzo[d]imidazole] | > 25000 | 51 | – | 14000 | 51 | –
11 | CC(C)N1C2CCC1CC(N1CCC(c3cc4c(cc3F)nc(-c3ccc(S(C)(=O)=O)cc3)n4C)CC1)C2 (single isomer, unassigned) [Example 98, 5-fluoro-6-(1-(8-isopropyl-8-azabicyclo[3.2.1]octan-3-yl)piperidin-4-yl)-1-methyl-2-(4-(methylsulfonyl)phenyl)-1H-benzo[d]imidazole] | > 50000 | – | – | 23800 | – | 10
